Data taken from patent US5869456A, “Use of glutathione diesters” (priority 1995, dated 1999).
Where two headings read alike, the source gives them in different places.

Key:
[1] = tested on: Purified Human T-Lymphoctyes; experiment: Thiol levels in purified human T-lymphocytes after treatment with GSH esters; type: cell-based; settings: purified T-cells, 0.3 ml 80 mM thiol to 0.9 ml cells, 37° C.
Experimental: HPLC Analysis of Cellular Thiols. […] Flow rates were 1 ml/min.
Purified T-cells were suspended in PBS. […] After incubation at 37° C. for the indicated times, cells were recovered and processed as described for PBM in Table 4.
Where values for cysteine are not reported, levels are <0.3 nmol/10^7cells (for 7 min. samples) or <0.5 nmol/10^7 cells (for 90 mni. samples).

[2] = tested on: Hamsters (liver, kidney, blood plasma); experiment: Thiol levels in hamsters treated with GSH esters; type: in vivo, Syrian hamster; settings: 1 hour later
Human Erythrocytes [3] = settings: for Thiol Levels, thiol found GSH / Thiol Levels, Total / Thiol Levels, thiol found GSH-ME: erythrocyte suspension, 80 mM thiol added (one-third vol), 37° C.
Experimental: Analysis of Erythrocyte Thiol by DTNB. Cell supernatant (40 μl) was added to 1 ml of 6 mM DTNB (in 143 mM phosphate buffer, pH 7.5, containing 6.3 mM EDTA). The change in absorbance at 412 nm after 1 min was converted to a value for total thiol using a GSH standard curve. The GSH standard were prepared in a 1:2:2 mixture of PBS: 0.435M acetic acid: 10% SSA (containing 2 mM EDTA) ("RBC Mix").
(§1) Derivatization of Cell Thiols for HPLC Analysis. Derivatization mixtures are as follows: Erythrocyte Lysates: 155 μl 50 mM DTPA (pH 7), 110 μl 3.33% SSA, total 180 μl cell supernatant plus "RBC Mix", 10 μl 0.1M mBBr (in CH3 CN), 100 μl of 2M Tris·HCl (pH 9 at room temperature). The samples were placed in the dark for 20-30 minutes at room temperature; the reaction was quenched with 90 μl of glacial acetic acid. Reduced Erythocyte Lysates. 155 μl mM DTT in 50 mM DTPA (pH 7), SSA, sample, and "RBC Mix" as above Tris was added and the samples were agitated at room temperature for 25 min. 20 μl Tris and 10 μl mBBr were added; the derivatization proceeds as above.
(§2) HPLC Analysis of Cellular Thiols. Samples were chromatographed on an Altex Ultrasphere ODS reverse phase column (5μ; 4.6 mm×25 cm), using one of three gradients: (1) Buffer A: 12.8% MeOH, 0.25% acetic acid, 87.75% H2 O, pH 3.9. (2) Buffer B: 90.0% MeOH, 0.25% acetic acid, 9.75% H2 O (no pH Adjustment). (3) Gradient 1: Initial, 100% A, linear gradient to 50% B at 25 min., linear gradient to 100% B at 35 min., wash with 100% B to 39.5 min.; step to 100% A at 40 min.; equilibration with 100% A to 48 min. Gradient 2: Initial, 100% A, linear gradient to 75% B at 25 min., remainder identical to Gradient 1. Gradient 3: Initial, 100% A, linear gradient to 65% A, 35% B at 25 minutes, remainder identical to gradient 1. Flow rates were 1 ml/min.
Whole blood was collected with EDTA or DTPA (0.5M, pH 7) as anticoagulant (0.4 ml/8-12 ml blood). Plasma and buffy coat were removed after centrifugation and the erythrocytes washed 3 times with 1-2 vol PBS/5 mM DTPA or EDTA. Packed erythrocytes were suspended in one-half vol. PBS. To each suspension was one-third vol. GSH, GSH-ME or GSH-DE (80 mM, pH 7). After incubation at 37° C. for the indicated times, aliquots were removed, washed (3-4×) with PBS/EDTA/DTPA, lysed with one volume 0.435M acetic acid, protein-precipitated with one volume 10% SSA/2 mM DTPA, and centrifuged to remove cell debris. Supernatants were derivatized for HPLC analysis as described in Materials and Methods.

[4] = tested on: Human Peripheral Blood Mononuclear Cells; settings: for Thiol Levels, thiol found GSH / Thiol Levels, Total / Thiol Levels, thiol found GSH-ME: isolated PBM, 0.3 ml 80 mM thiol to 0.9 ml cells, 37° C.
Experimental: (§3) T Cell and PBM Lysates: 120 μl 4 mM DTPA, total 360 μl sample/4.31% SSA (containing 0.5 mM DTPA), 100 μl Tris, 5μ mBBr; 20 min. in the dark, 15 μl glacial acetic acid.
as §2
PBM were isolated from whole blood (see Tables 1 and 3) washed with PBS, and re-suspended in PBS. To 0.9 ml cell suspension (5-8×10^6 cells) was added 0.3 ml of 80 mM GSH, GSH-ME or GSH-DE at pH 7. After incubation at 37° C. for the indicated times, the cells were recovered by centrifugation, washed with 14 ml PBS (2×), and lysed by addition of 4.31% of SSA/0.5 mM DTPA and 2-3 freeze-thaw cycles. After centrifugation, supernatants were derivatized for HPLC analysis.

Human Erythrocytes [5] = settings: whole blood + one-half volume 120 mM thiol, 30 minutes, 37° C.
Experimental: as §1, §2
Whole blood (see Table 1) was mixed with one-half volume of 120 mM GSH, GSH-ME, or GSH-DE at pH 7. The samples were incubated for 30 minutes at 37° C. and then centrifuged. After removal of plasma and buffy coat, the erythrocytes were washed and processed as described in Table 1.

[6] = tested on: Human Peripheral Blood Mononuclear Cells; settings: 6 ml whole blood + 3 ml 60 mM thiol, 30 min, 37° C.; PBM
Experimental: as §3, §2
6 mls. whole blood (see Table 1) was mixed with 3 ml of 60 mM GSH, GSH-ME or GSH-DE at pH 7. After 30 min incubation at 37° C., PBM were isolated by Ficoll-Hypaque density gradient centrifugation. Cells were washed with 14 ml PBS (2-3) and lysed with 4.31% SSA/0.5 mM DTPA (400 μl). After centrifugation, the supernatants were derivatized for HPLC analysis.

`CCCCS(=N)(=O)CCC(N)C(=O)O` [BSO, L-buthionine sulfoximine] was tested, and the “Thiol Levels, thiol found GSH” value ([1]; 7 min, donor A) was 2.39 ± 0.09 nmol/10^7 cells, the “Thiol Levels, thiol found GSH” value ([1]; 90 min, donor B) was less than 0.6 nmol/10^7 cells and the “Kidney thiol found GSH” value ([2]; fasted hamsters, BSO 6 mmol/kg I.P. 2 hours before thiol 5 mmol/kg, kidney) was 1.00 ± 0.19 µmol/g. For the same compound, the “Liver thiol found GSH” value ([2]; fasted hamsters, BSO 6 mmol/kg I.P. 2 hours before thiol 5 mmol/kg, liver) was 5.10 ± 0.51 µmol/g.
`N[C@@H](CCC(=O)N[C@@H](CS)C(=O)NCC(=O)O)C(=O)O` [GSH, L-γ-glutamyl-L-cysteinyl-glycine] was tested, and the “Thiol Levels, thiol found GSH” value (Human Erythrocytes [3]; 7 min) was 1.91 ± 0.05 mM, the “Thiol Levels, thiol found GSH” value (Human Erythrocytes [3]; 45 min) was 2.04 ± 0.06 mM and the “Thiol Levels, thiol found GSH” value (Human Erythrocytes [3]; 90 min) was 1.83 ± 0.07 mM. The “Thiol Levels, thiol found GSH” value ([4]; 7 min, donor A) was 1.86 nmol/10^6 cells, the “Thiol Levels, thiol found GSH” value ([4]; 7 min, donor B) was 1.51 nmol/10^6 cells and the “Thiol Levels, thiol found GSH” value ([4]; 45 min, donor B) was 1.16 ± 0.06 nmol/10^6 cells. The “Thiol Levels, thiol found GSH” value ([4]; 90 min, donor A) was 1.60 nmol/10^6 cells, the “Thiol Levels Found, GSH” value (Human Erythrocytes [5]) was 2.12 ± 0.47 mM and the “Thiol Levels Found, Total” value (Human Erythrocytes [5]) was 2.12 ± 0.47 mM.
With `CCOC(=O)CNC(=O)[C@H](CS)NC(=O)CC[C@H](N)C(=O)O` [GSH-ME, glutathione monoethyl (glycyl) ester] the “Thiol Levels, Total” value (Human Erythrocytes [3]; 7 min) was 2.65 ± 0.31 mM, the “Thiol Levels, thiol found GSH” value (Human Erythrocytes [3]; 7 min) was 1.72 ± 0.27 mM and the “Thiol Levels, thiol found GSH-ME” value (Human Erythrocytes [3]; 7 min) was 0.932 ± 0.04 mM. For the same compound, the “Thiol Levels, Total” value (Human Erythrocytes [3]; 45 min) was 3.49 ± 0.35 mM, the “Thiol Levels, thiol found GSH” value (Human Erythrocytes [3]; 45 min) was 1.83 ± 0.31 mM and the “Thiol Levels, thiol found GSH-ME” value (Human Erythrocytes [3]; 45 min) was 1.66 ± 0.04 mM. For the same compound, the “Thiol Levels, Total” value (Human Erythrocytes [3]; 90 min) was 3.57 ± 0.38 mM, the “Thiol Levels, thiol found GSH” value (Human Erythrocytes [3]; 90 min) was 1.90 ± 0.30 mM and the “Thiol Levels, thiol found GSH-ME” value (Human Erythrocytes [3]; 90 min) was 1.67 ± 0.08 mM. The “total RBC thiol levels” value (Human Erythrocytes [3]; summary of Table 1) was “about 3 mM”, the “Thiol Levels Found, GSH” value [6] was 1.46 nmol/10^6 cells and the “Thiol Levels Found, GSH-ME” value [6] was 2.08 nmol/10^6 cells. For the same compound, the “Thiol Levels Found, Total” value [6] was 3.54 nmol/10^6 cells, the “total thiols in human PBM” value ([4]; in 90 min, text summary of Table 4) was 10.6 mM and the “Thiol Levels, Total” value ([4]; 7 min, donor A) was 3.32 ± 0.19 nmol/10^6 cells. The “Thiol Levels, thiol found GSH” value ([4]; 7 min, donor A) was 2.05 ± 0.08 nmol/10^6 cells, the “Thiol Levels, thiol found GSH-ME” value ([4]; 7 min, donor A) was 1.27 ± 0.11 nmol/10^6 cells and the “Thiol Levels, Total” value ([4]; 45 min, donor B) was 4.39 ± 0.25 nmol/10^6 cells. For the same compound, the “Thiol Levels, thiol found GSH” value ([4]; 45 min, donor B) was 1.64 ± 0.06 nmol/10^6 cells, the “Thiol Levels, thiol found GSH-ME” value ([4]; 45 min, donor B) was 2.75 ± 0.19 nmol/10^6 cells and the “Thiol Levels, Total” value ([4]; 90 min, donor A) was 10.7 ± 1.3 nmol/10^6 cells. The “Thiol Levels, thiol found GSH” value ([4]; 90 min, donor A) was 3.45 ± 0.39 nmol/10^6 cells, the “Thiol Levels, thiol found GSH-ME” value ([4]; 90 min, donor A) was 7.23 ± 0.88 nmol/10^6 cells and the “Thiol Levels Found, GSH” value (Human Erythrocytes [5]) was 2.35 ± 0.52 mM. The “Thiol Levels Found, GSH-ME” value (Human Erythrocytes [5]) was 3.45 ± 0.73 mM, the “Thiol Levels Found, Total” value (Human Erythrocytes [5]) was 5.80 ± 1.25 mM and the “Blood plasma levels of GSH” value ([2]; hamsters, 5 mmol/kg after BSO) was “not affected”.
